Columns and labels:
[1] = Body weight and animal welfare after bleomycin instillation; type: in vivo, Sprague-Dawley rats
Description: Animal handling and treatment procedures followed a protocol approved by the Institutional Animal Care and Use Committee. A total of 18 male Sprague-Dawley rats weighing 196±8 g were used. They were divided into three groups of n=6: control, low-dose (LD), and high-dose (HD). A single animal per dose group died immediately after dosing. Therefore, each group was left with n=5. No additional unanticipated mortality occurred for the duration of the experiment.
In brief, rats were first weighed then injected subcutaneously with 0.02 mL/kg body weight (BW) glycopyrrolate to inhibit oral secretions and facilitate insertion of an endotracheal tube. After 10-15 minutes, animals were anesthetized with 3-4% isoflurane in oxygen-enriched air (30% O2, 70% N2).
Other than the initial weight loss, no other outward signs of distress were observed.

lungs of live rats = test: Proton MRI (S0/T2 bivariate analysis) of lungs after intratracheal bleomycin instillation; type: in vivo, Sprague-Dawley rats
Description: In these experiments, three groups of Sprague-Dawley rats (n=5) were instilled intratracheally with bleomycin (2.5 U/kg or 3.5 U/kg) in saline or with saline only. Rats were imaged at 2.0 T using a multi-slice Carr-Purcell-Meilboom-Gill (CPMG) sequence with 6 ms echo spacing. Signal intensity (S0) and T2 were calculated on a pixel-by-pixel basis using images collected before dosing and 1, 2, 4, and 7 weeks after. At each time point, data from dosed animals were compared to controls, and bivariate statistical analysis was employed to classify image pixels containing abnormal tissue. At week 7, pulmonary function tests were performed, then all rats were sacrificed, left lungs were formalin fixed and tri-chrome stained for histological analysis of collagen content, and right lungs were used to measure water and hydroxyproline (collagen) content.
Animal handling and treatment procedures followed a protocol approved by the Institutional Animal Care and Use Committee. A total of 18 male Sprague-Dawley rats weighing 196±8 g were used. […]
MRI Analysis. Images were reconstructed using a standard 2D Fourier transform, then they were read into Mathematica 6.0 (Wolfgram Research, Champaign, Ill.) for further analysis. […] The mean background noise was measured from the first image of each stack. […]
Following segmentation, data for each rat at each time point were written to a columnar data file that contained S0, T2, slice number, and the corresponding pixel coordinates. […] A scatter plot of T2 (y-axis) vs. S0 (x-axis) was then generated to show the clustering of the data and the relationship between the measured parameters (for example, see FIG. 2A). Using a Mathematica script and bivariate statistical analysis, an ellipsoid was calculated that encircled ˜95% of the data points that were heretofore defined as “normal” lung with 95% confidence.
Each dosed animal was compared to the control group at the same time point, and data points within the ellipsoid were deleted as shown in FIG. 4B. The percentage of total pixels that were “abnormal” was calculated for each animal at each time point. […]

Substance: bleomycin sulfate
- breathing under anesthesia ([1]; 3.5 U/kg BW (HD), weeks 1, 2 and 4): struggle with breathing under anesthesia
- body weight change ([1]; both dose groups (2.5 and 3.5 U/kg BW), first week): lost a significant amount of weight
- response of the LD group (lungs of live rats; 2.5 U/kg BW intratracheal (LD), after the first two weeks of the study): very mild response
- percentage of "abnormal" pixels vs control rats (lungs of live rats; 2.5 U/kg BW intratracheal (LD), by week 4): essentially indistinguishable from the control rats
- response (fraction of "abnormal" pixels) compared with LD rats (lungs of live rats; 3.5 U/kg BW intratracheal (HD), throughout the experiment (7 weeks)): stronger response

Source: patent US8466678B2, “Method and apparatus for enhanced in vivo MRI imaging” (Battelle Memorial Institute, priority 2009, dated 2013)
